Results on one molecule are retold here after patent US20220290140A1, “TRANS-CYCLOOCTENE LABELED ANTISENSE OLIGONUCLEOTIDES, RADIO LABELED TETRAZINE AND METHODS” (Biogen MA Inc., priority 2019, published 2022).

Holding throughout (type): in vitro ADME
Data set [1] in a line: Plasma protein binding (PPB). The following applies: rat, read-out: plasma protein binding, unbound. The text has this: (§1) As pretargeting is a 2-component system, an ^18F-Tz was developed to be CNS-penetrant based on cnsPET-MPO modeling (Zhang, L., et al. (2018). J Med Chem 61(8): 3296-3308).
The next data set deals with T1, BCRP (Homo sapiens, UniProt Q9UNQ0).
T1 construct: expressed in transfected cells; host or cells: MDCK (canine kidney) cells expressing BCRP
T1 sequence (Q9UNQ0 1-655): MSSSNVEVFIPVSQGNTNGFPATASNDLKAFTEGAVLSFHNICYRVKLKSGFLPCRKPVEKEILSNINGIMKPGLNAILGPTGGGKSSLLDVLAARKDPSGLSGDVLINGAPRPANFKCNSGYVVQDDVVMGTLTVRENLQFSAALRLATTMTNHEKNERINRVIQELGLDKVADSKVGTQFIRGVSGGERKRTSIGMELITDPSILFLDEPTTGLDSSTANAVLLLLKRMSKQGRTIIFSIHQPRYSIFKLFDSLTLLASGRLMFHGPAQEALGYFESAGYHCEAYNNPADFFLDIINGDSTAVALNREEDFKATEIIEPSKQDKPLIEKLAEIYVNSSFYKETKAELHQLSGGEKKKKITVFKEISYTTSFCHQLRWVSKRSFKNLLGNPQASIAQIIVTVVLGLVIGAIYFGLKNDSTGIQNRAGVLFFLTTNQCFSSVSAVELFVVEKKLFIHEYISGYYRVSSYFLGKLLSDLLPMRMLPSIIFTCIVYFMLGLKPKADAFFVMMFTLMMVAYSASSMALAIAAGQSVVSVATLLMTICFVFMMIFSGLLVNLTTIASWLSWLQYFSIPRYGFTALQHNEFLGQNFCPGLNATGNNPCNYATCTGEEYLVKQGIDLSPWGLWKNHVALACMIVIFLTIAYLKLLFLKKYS
Put plainly: in vitro. The following applies: dog.
Description: as §1

The target in another data set is T2, P-gp (Homo sapiens, UniProt P08183).
T2 construct: expressed in transfected cells; host or cells: MDCK (canine kidney) cells expressing P-gp
T2 sequence (P08183 whole entry): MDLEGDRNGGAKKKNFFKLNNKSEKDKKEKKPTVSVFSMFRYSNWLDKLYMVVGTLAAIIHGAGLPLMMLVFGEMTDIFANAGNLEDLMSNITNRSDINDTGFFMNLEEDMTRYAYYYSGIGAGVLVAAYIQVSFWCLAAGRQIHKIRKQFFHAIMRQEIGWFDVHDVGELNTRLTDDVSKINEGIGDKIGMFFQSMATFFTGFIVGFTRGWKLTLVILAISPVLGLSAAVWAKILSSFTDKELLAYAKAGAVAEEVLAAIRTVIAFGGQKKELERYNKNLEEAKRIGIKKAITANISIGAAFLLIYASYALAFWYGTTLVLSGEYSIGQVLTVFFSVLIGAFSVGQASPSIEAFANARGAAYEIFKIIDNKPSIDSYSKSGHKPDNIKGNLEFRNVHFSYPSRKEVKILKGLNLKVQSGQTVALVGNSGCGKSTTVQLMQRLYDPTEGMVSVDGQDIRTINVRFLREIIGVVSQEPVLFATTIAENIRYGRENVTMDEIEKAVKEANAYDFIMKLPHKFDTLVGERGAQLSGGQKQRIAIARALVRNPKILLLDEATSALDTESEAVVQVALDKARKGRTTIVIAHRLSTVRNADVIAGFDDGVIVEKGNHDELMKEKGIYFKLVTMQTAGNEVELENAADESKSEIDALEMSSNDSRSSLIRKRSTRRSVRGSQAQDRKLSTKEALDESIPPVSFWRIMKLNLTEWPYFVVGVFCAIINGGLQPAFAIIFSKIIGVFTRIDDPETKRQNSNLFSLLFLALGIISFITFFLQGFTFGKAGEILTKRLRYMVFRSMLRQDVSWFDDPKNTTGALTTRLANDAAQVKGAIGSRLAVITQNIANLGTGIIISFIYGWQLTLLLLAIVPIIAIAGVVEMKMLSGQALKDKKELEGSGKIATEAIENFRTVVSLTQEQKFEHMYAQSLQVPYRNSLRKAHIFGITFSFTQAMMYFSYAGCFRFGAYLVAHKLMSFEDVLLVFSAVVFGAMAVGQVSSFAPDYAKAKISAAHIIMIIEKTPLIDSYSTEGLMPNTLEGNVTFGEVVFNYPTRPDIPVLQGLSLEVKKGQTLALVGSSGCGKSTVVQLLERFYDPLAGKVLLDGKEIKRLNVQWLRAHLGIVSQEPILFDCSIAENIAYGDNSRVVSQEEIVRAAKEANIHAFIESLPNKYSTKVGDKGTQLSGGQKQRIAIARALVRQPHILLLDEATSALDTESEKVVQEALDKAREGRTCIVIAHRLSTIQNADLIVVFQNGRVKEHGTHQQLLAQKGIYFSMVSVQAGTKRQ
The data set can be described thus: MDCK-P-gp cell model of permeability (efflux ratio). Conditions: dog, MDCK-MDR1.
Description: as §1

Data set [2] in a line: Brain protein binding (BPB). Conditions: rat, brain tissue (brain protein binding).
Description: as §1

On to `O=C(Cc1ccc(-c2nncnn2)cc1)NCCF` [Compound 1′, 2-(4-(1,2,4,5-tetrazin-3-yl)phenyl)-N-(2-fluoroethyl)acetamide], for which the results for the fraction unbound in data set [1] and in data set [2] were 0.69 and 0.51, respectively. Further, the values for the efflux ratio at BCRP and at P-gp were 0.51 and 1.71, respectively.
